Measurements: patent publication US8497075B2, “Methods of identifying a modulator that inhibits the binding between Epstein-Barr virus induced receptor 2 and cholesterol derived ligands” (Novartis AG, priority 2008, dated 2013)

Key:
Assay in all cases: nuclear hormone receptor reporter gene assay
Format in all cases: cell-based
Settings in all cases: concentrations up to 10 μM
[1] = molecular target: T1, FXRa (NR1H4) (Homo sapiens, UniProt Q96RI1)
T1 sequence (Q96RI1 1-486): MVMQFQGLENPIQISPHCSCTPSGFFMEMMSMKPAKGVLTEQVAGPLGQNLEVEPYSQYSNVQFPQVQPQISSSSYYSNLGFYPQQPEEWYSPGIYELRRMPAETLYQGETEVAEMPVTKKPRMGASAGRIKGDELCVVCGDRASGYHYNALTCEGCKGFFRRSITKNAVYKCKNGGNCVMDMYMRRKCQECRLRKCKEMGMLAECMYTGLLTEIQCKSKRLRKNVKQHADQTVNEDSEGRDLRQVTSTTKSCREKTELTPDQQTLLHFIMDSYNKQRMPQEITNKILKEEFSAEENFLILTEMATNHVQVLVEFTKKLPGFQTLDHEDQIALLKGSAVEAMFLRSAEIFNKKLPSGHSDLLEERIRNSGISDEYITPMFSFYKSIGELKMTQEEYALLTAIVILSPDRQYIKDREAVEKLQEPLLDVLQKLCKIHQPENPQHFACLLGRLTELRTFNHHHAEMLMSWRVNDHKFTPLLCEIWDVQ
From the text: (§1) So far oxysterols have been noted to have various physiological activities namely regulate the expression of genes that participate in both sterol and fat metabolism, serve as substrates for the synthesis of bile acids, and are intermediates in the transfer of sterols from the periphery to the liver (Russell, D. W. (2000). Oxysterol biosynthetic enzymes. Biochim. Biophys. Acta 1529, 126-135). […] This included binding assays for 26 different GPCRs, functional assays of 9 different GPCRs, 40 kinase assays, as well as selected ion channels, proteases, transporter and enzyme assays.

[2] = molecular target: T2, ERa (NR3A1) (Homo sapiens, UniProt P03372)
T2 sequence (P03372 1-595): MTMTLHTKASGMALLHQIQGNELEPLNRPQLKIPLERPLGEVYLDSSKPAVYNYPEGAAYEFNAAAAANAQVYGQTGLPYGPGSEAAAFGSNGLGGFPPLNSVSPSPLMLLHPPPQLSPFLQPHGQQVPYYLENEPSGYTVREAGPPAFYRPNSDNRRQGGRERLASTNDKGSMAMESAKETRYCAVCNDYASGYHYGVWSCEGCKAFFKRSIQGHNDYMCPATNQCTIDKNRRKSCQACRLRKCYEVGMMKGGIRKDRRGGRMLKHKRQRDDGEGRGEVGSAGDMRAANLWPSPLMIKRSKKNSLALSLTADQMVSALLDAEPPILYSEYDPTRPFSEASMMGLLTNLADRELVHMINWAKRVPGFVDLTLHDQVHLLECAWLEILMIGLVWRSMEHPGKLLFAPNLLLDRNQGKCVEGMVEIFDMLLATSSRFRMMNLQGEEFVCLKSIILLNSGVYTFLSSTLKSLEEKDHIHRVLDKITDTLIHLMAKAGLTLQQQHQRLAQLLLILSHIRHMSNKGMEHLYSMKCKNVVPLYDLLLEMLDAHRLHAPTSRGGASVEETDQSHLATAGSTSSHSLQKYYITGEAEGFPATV
From the text: as §1

[3] = molecular target: T3, GR (NR3C1) (Homo sapiens, UniProt P04150)
T3 sequence (P04150 1-777): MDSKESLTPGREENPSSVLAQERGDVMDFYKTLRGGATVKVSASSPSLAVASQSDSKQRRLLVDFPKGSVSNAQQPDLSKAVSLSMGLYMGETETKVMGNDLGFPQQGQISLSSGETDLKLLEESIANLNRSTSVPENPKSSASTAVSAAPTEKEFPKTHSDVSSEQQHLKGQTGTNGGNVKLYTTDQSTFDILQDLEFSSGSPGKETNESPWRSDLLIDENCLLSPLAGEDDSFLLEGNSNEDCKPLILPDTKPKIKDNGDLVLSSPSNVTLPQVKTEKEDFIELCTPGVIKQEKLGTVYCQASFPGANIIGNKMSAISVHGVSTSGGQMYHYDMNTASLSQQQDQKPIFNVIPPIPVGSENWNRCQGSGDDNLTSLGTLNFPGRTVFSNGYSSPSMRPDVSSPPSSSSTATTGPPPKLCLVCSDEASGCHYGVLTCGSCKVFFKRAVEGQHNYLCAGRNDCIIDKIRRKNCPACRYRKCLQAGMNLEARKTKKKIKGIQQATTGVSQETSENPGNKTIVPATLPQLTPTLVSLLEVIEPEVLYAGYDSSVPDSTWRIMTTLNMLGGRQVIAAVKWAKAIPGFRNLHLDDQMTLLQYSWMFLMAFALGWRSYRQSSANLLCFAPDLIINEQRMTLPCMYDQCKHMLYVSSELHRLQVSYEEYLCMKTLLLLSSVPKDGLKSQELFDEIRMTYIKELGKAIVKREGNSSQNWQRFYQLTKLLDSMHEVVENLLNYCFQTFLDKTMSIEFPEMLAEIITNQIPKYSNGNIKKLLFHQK
From the text: as §1

[4] = molecular target: T4, RXRa (NR2B1) (Homo sapiens, UniProt P19793)
T4 sequence (P19793 1-462): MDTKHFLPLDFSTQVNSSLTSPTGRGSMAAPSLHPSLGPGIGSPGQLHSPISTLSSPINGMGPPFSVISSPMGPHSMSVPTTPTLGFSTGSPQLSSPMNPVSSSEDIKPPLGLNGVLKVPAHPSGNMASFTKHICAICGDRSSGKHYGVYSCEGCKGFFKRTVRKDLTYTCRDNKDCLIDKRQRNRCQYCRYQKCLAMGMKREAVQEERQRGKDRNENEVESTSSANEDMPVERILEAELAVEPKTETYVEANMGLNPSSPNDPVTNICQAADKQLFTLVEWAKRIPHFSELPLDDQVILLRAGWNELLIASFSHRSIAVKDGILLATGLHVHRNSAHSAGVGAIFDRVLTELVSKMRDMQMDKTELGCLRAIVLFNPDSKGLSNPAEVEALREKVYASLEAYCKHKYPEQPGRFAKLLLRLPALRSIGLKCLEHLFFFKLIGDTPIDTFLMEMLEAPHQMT
From the text: as §1

C[C@H](CCCC(C)(C)O)[C@H]1CC[C@H]2[C@@H]3[C@H](O)C=C4C[C@@H](O)CC[C@]4(C)[C@H]3CC[C@]12C [7a,25DHC, cholest-5-ene-3b,7a,25-triol]
did not activate: activation of FXRa [1] | activation of ERa [2] | activation of GR [3] | activation of RXRa [4]

CC(CO)CCC[C@@H](C)[C@H]1CC[C@H]2[C@@H]3[C@H](O)C=C4C[C@@H](O)CC[C@]4(C)[C@H]3CC[C@]12C (some centres unmarked) [7a,27DHC, cholest-5-ene-3b,7a,27-triol]
did not activate: activation of FXRa [1] | activation of ERa [2] | activation of GR [3] | activation of RXRa [4]
